Reference: ChEMBL document CHEMBL1157075, “Antiangiogenic metabolites from a marine-derived fungus, Hypocrea vinosa” (J Nat Prod, 2010)
The source made the active and inactive calls. The calls are words filed in the database; no cut-off is given here.

Legend:
HUVEC [1] = assay: Antiproliferative activity against HUVEC after 72 hrs by MTT assay; assay type: cell-based; conditions: Homo sapiens
HUVEC [2] = assay: Inhibition of protein tyrosine kinase in HUVEC lysates at 10 ug/ml after 2 hrs; assay type: cell-based; conditions: Homo sapiens
HUVEC [3] = assay: Antiangiogenic activity against HUVEC assessed as inhibition VEGF-stimulated tubule formation at 10 ug/ml after 11 days by microscopy; assay type: functional, cell-based; conditions: Homo sapiens
HUVEC [4] = assay: Inhibition of VEGF-induced HUVEC migration at 1 ug/ml after 22 hrs by microscopy; assay type: functional; conditions: Homo sapiens
HUVEC [5] = assay: Inhibition of VEGF-induced HUVEC migration after 22 hrs by microscopy; assay type: functional, cell-based; conditions: Homo sapiens
HUVEC [6] = assay: Inhibition of protein tyrosine kinase in HUVEC lysates at 100 ug/ml after 2 hrs; assay type: cell-based; conditions: Homo sapiens
NHDF [7] = assay: Cytotoxicity against NHDF after 72 hrs by WST8 assay; assay type: cell-based; conditions: Homo sapiens
HeLa = assay: Cytotoxicity against human HeLa cells after 72 hrs by WST8 assay; assay type: functional, cell-based
HUVEC [8] = assay: Inhibition of VEGF-induced HUVEC migration at 10 ug/ml after 22 hrs by microscopy; assay type: functional; conditions: Homo sapiens
HUVEC [9] = assay: Inhibition of VEGF-induced HUVEC migration at 0.1 ug/ml after 22 hrs by microscopy; assay type: functional; conditions: Homo sapiens
HUVEC [10] = assay: Inhibition of protein tyrosine kinase in HUVEC lysates at 1 ug/ml after 2 hrs; assay type: cell-based; conditions: Homo sapiens
NHDF [11] = assay: Antiangiogenic activity against NHDF assessed as inhibition VEGF-stimulated tubule formation at 10 ug/ml after 11 days by microscopy; assay type: functional, cell-based; conditions: Homo sapiens
[12] = Inhibition of protein tyrosine kinase in HUVEC lysates after 2 hrs; assay type: cell-based, Homo sapiens
P388 [13] = assay: Antitumor activity against mouse P388 cells xenografted in mouse at 20 mg/kg; assay type: functional, organism-based; parameters: dose 20 mg/kg
P388 [14] = assay: Antitumor activity against mouse P388 cells xenografted in mouse; assay type: functional
Mus musculus [15] = species on record: Mus musculus; assay: Toxicity in mouse assessed as reduction of body weight; assay type: organism-based; conditions: in vivo
Mus musculus [16] = assay: Toxicity in mouse at 60 mg/kg; assay type: organism-based; parameters: dose 60 mg/kg; conditions: in vivo

SMILES | IC50 (HUVEC [1]) | inhibition (HUVEC [2]) | inhibition (HUVEC [3]) | inhibition at 1 µg/mL (HUVEC [4]) | IC50 (HUVEC [5]) | inhibition (HUVEC [6]) | inhibition at 10 µg/mL (HUVEC [8]) | inhibition at 0.1 µg/mL (HUVEC [9]) | inhibition (HUVEC [10]) | inhibition (NHDF [11]) | IC50 [12] | Activity (P388 [14]) | Activity (Mus musculus [15]) | also measured
CC(=O)Cc1cc(=O)c2c(O)c3c(O)cc(O)c(-c4c(O)cc(O)c5c(O)c6c(=O)cc(CC(C)=O)oc6cc45)c3cc2o1 | 17.4 µM | 38.3% | Active | 57.8% | 1.09 µM | 66.2% | 86.7% | 20% | 11% | Active | 42.1 µM | – | – | IC50 (NHDF [7]): > 500 µM; IC50 (HeLa): 209 µM
C[C@H]1Oc2cc3c(-c4c(O)cc(O)c5c(O)c6c(cc45)O[C@H](C)[C@@H](C)C6=O)c(O)cc(O)c3c(O)c2C(=O)[C@@H]1C | – | – | – | – | – | – | – | – | – | – | – | – | – | Activity (P388 [13]): Active
C[C@@H]1Oc2cc3c(-c4c(O)cc(O)c5c(O)c6c(cc45)O[C@H](C)[C@@H](C)C6=O)c(O)cc(O)c3c(O)c2C(=O)[C@@H]1C [CHAETOCHROMIN B] | – | – | – | – | – | – | – | – | – | – | – | Active | Toxic | –
CC1CC(=O)c2c(cc3c(-c4c(O)cc(O)c5c(O)c6c(cc45)O[C@H](C)[C@@H](C)C6=O)c(O)cc(O)c3c2O)O1 (stereo not given in full) [CHAETOCHROMIN C] | – | – | – | – | – | – | – | – | – | – | – | Active | Toxic | –
Cc1oc2cc3c(-c4c(O)cc(O)c5c(O)c6c(cc45)O[C@@H](C)[C@H](C)C6=O)c(O)cc(O)c3c(O)c2c(=O)c1C [CHAETOCHROMIN D] | – | – | – | – | – | – | – | – | – | – | – | Active | Toxic | –
CC(=O)Cc1cc(=O)c2c(O)c3c(O)cc(O)c(-c4c(O)cc(O)c5c(O)c6c(=O)cc(CC(C)O)oc6cc45)c3cc2o1 (stereo not given) [HYPOCHROMIN A] | 50 µM | 21.9% | Active | 62.2% | 0.87 µM | 73.4% | 100% | 28.9% | 0% | Active | 58.7 µM | – | – | –
CC(=O)Cc1cc(=O)c2c(O)c3c(O)cc(O)c(-c4c(O)cc(O)c5c(O)c6c(=O)cc(C)oc6cc45)c3cc2o1 [HYPOCHROMIN B] | 13.1 µM | 50% | Active | 53.3% | 1.51 µM | 72.4% | 95.6% | 33.3% | 12.4% | Active | 18 µM | – | – | –
Cc1cc(=O)c2c(O)c3c(O)cc(O)c(-c4c(O)cc(O)c5c(O)c6c(=O)cc(C)oc6cc45)c3cc2o1 [USTILAGINOIDIN A] | – | – | – | – | – | – | – | – | – | – | – | – | – | Activity (Mus musculus [16]): Toxic
Cc1cc(=O)c2c(O)c3c(O)cc(O)c(-c4c(O)cc(O)c5c(O)c6c(cc45)OC(C)CC6=O)c3cc2o1 (stereo not given) [USTILAGINOIDIN G] | – | – | – | – | – | – | – | – | – | – | – | Active | Toxic | –
